# Experiments:
# Assay type in all cases: functional, cell-based
# HepG2 = assay: Cytotoxicity against human HepG2 cells incubated for 48 hrs by SRB assay; details: HepG2, 48 h
# HeLa [1] = assay: Cytotoxicity against human HeLa cells incubated for 48 hrs by SRB assay
# IMR-32 = assay: Cytotoxicity against human IMR-32 cells incubated for 48 hrs by SRB assay; details: IMR-32, 48 h
# MCF7 [2] = assay: Antiproliferative activity against human MCF7 cells by tetrazolium-based semiautomated colorimetric assay
# CCRF-CEM = assay: Cytotoxicity against human CEM cells incubated for 72 hrs by MTT assay
# Jurkat = assay: Cytotoxicity against human Jurkat cells incubated for 72 hrs by MTT assay
# HL-60 = assay: Cytotoxicity against human HL-60 cells incubated for 72 hrs by MTT assay; details: HL-60, 72 h
# [3] = Cytotoxicity against human MDA-Panc-28 cells incubated for 24 hrs by MTS method; details: MDA-Panc-28, 24 h
# Bel-7402 = assay: Cytotoxicity against human Bel-7402 cells incubated for 24 hrs by MTS method; details: Bel-7402, 24 h
# HT-29 = assay: Cytotoxicity against human HT-29 cells incubated for 24 hrs by MTS method; details: HT-29, 24 h
# MCF7 [4] = assay: Antiproliferative activity against human MCF7 cells incubated for 48 hrs by [3H]-thymidine incorporation assay
# SW480 = assay: Antiproliferative activity against human SW480 cells incubated for 72 hrs by MTT assay; details: SW480, 72 h
# MDA-MB-435 = assay: Antiproliferative activity against human MDA-MB-435 cells incubated for 48 hrs by [3H]-thymidine incorporation assay
# NCI-H446 = assay: Cytotoxicity against human NCI-H446 cells
# MCF7 [5] = assay: Cytotoxicity against human MCF7 cells
# HeLa [6] = assay: Cytotoxicity against human HeLa cells
# UACC-62 = assay: Cytotoxicity against human UACC-62 cells incubated for 48 hrs by sulforhodamine B staining based spectrophotometric assay; details: UACC-62, 48 h
# MCF7 [7] = assay: Cytotoxicity against human MCF7 cells incubated for 48 hrs by sulforhodamine B staining based spectrophotometric assay; details: MCF7, 48 h
structure (smiles),measurement,setting,value
C=C1[C@@H]2CC[C@@]3(C)[C@H](c4ccoc4)OC(=O)C[C@]13O[C@H]1C[C@H](OC(C)=O)C(C)(C)[C@H](CC(=O)OC)[C@]12C,IC50,HepG2,> 100 µM
same,IC50,HeLa [1],61 µM
same,IC50,IMR-32,0.022 µM
C[C@H]1[C@@H](CCC(=O)NCC[C@H]2O[C@@H]3O[C@]4(C)CC[C@H]5[C@H](C)CC[C@@H]([C@H]2C)[C@@]35OO4)O[C@@H]2O[C@@]3(C)CC[C@H]4[C@H](C)CC[C@@H]1[C@@]24OO3,IC50,MCF7 [2],0.008 µM
CC(O)CC(=O)O[C@@]1(C)CO[C@@]2(C1)OC(=O)[C@H]([C@@H]1CC[C@]34C[C@]13C=C[C@@H]1[C@@]3(C)CC=C5C[C@@H](Cc6ccccc6)OC[C@]5(C)[C@@H]3C[C@@H](O)[C@]14C)[C@H]2O (some centres undefined),IC50,CCRF-CEM,3.1 µM
same,IC50,Jurkat,1.8 µM
same,IC50,HL-60,5.6 µM
CO[C@@]12OC(=O)C(CO)=C1[C@H]1O[C@]13CC[C@@H]1C(C)(C)CCC[C@@]1(C)[C@@H]3[C@H]2O,IC50,[3],> 50 µM
same,IC50,Bel-7402,> 50 µM
same,IC50,HT-29,> 50 µM
C=C1[C@@H]2CC[C@@]3(C)[C@H](c4ccoc4)OC(=O)C[C@]13O[C@H]1C[C@H](OC(=O)CN3CCN(C(=O)c4ccccc4)CC3)C(C)(C)[C@H](CC(=O)OC)[C@]12C,IC50,HepG2,0.01 µM
same,IC50,HeLa [1],14 µM
same,IC50,IMR-32,> 100 µM
CC(=O)O[C@@]1(C)COC2(C1)OC(=O)[C@H]([C@@H]1CC[C@]34C[C@]13C=C[C@@H]1[C@@]3(C)CC=C5C[C@@H](Cc6ccccc6)OC[C@]5(C)[C@@H]3C[C@@H](O)[C@]14C)[C@H]2O (some centres undefined),IC50,CCRF-CEM,24 µM
same,IC50,Jurkat,2.7 µM
same,IC50,HL-60,30 µM
CC1(C)OC(=O)C=C[C@]2(C)[C@H]3CC[C@@](C)([C@@H](O[C@H]4O[C@H](CO)[C@@H](O)[C@H](O)[C@H]4O)c4ccoc4)[C@@]4(O[C@@H]4C(=O)O)[C@]3(C)C(=O)C[C@@H]12,IC50,MCF7 [4],3.2 µM
same,IC50,SW480,60 µM
same,IC50,MDA-MB-435,10 µM
C[C@@]12[C@H](O)C=C[C@]3(C)C(=O)O[C@H](C=C4COC(=O)C[C@H]41)[C@H]23,IC50,NCI-H446,16 µM
same,IC50,MCF7 [5],11 µM
same,IC50,HeLa [6],10 µM
CC(=O)O[C@H]1C=C2C(=O)C3=C(C)C(=O)O[C@@H]3C[C@H]2[C@]2(C)CCCC(C)(C)[C@@H]12,IC50,UACC-62,0.08 µM
same,IC50,MCF7 [7],0.13 µM

# Reference: ChEMBL document CHEMBL4706632, “Development of Potential Antitumor Agents from the Scaffolds of Plant-Derived Terpenoid Lactones” (J Med Chem, 2020)
